Experimental data reported in patent publication US6297257A, “Benzazine derivatives phosphodiesterase 4 inhibitors” (Zambon Group S.p.A., priority 1997, dated 2001).
Where a name gives a salt, the structure may show the parent alone.

What was measured:
PDE 4 = PDE 4 Enzyme Inhibition (SPA); type: biochemical; details: enzyme from human PMNs, cAMP 1 μM; for IC50: 40 minutes at 30° C.
Excerpt: PDE 4 Enzyme Inhibition Study a) Purification of Human Polymorphonucleate Leukocytes The polymorphonucleate leukocytes (PMNs) were isolated from peripheral blood of healthy volunteers according to what described by Boyum A., Scand. J. Immunol., 1976, 50 suppl., 9). Shortly, the isolation of the PMNs was effected by Ficoll-Paque gradient centrifugation followed by sedimentation on dextrane and the erythrocyte contanunation was eliminated by hypotonic lysis. b) PDE 4 Enzyme Purification The human PMNs were re-suspended in TRIS/HCl buffer (10 mM pH 7.8) containing MgCl2 (5 mM), EGTA (4 mM), mercaptoethanol (5 mM), TRITON-X100 (1%), pepstatin A (1 μM), PMSF (100 μM) and leupeptin (1 μM), and homogenized by Polytron. The homogenate was centrifuged at 25,000×g per 30 minutes at 4° C. and the sumatant was used for the PDE 4 enzyme purification by ion exchange chromatography using the FPLC technique according to what described by Schudt C. et al., Naunyn-Schmidberg's Arch. Pharmacol., 1991, 334, 682. The surnatant was seeded on a UNO Q12 column (Bio-Rad) and the enzyme was eluted by sodium acetate gradient from 50 mM to 1M. The fractions containing enzymatic activity were joined, dialysed against water and concentrated. The resulting PDE 4 enzyme was stored at -20° C. in the presence of ethylenglycole (30%) v/v) till the use c) PDE 4 Enzyme Inhibition The enzyme activity was evaluated with an Amersham kit based on the SPA technique (Scintillation Proximity Assay). The enzymatic reaction was effected in a total volume of 100 μl of TRIS/HCl buffer (50 mM, pH7.5), MgCl2, (8.3 mM), EGTA (1.7 mM), cAMP (1 μM) and [^3 H]cAMP (~100.000 dpm). The compounds of the invention were added at the wanted concentrations. The reaction was started by adding the enzyme (15 μg protein/ml) in 40 minutes at 30° C. and stopped by adding 50 μl of suspension of SPA particles. The radioactivity due to the particles was measured in β-emitting counter. The IC50 values were calculated on 9 equidistant concentrations in logarithmic scale using a 4-parameters logistic function by a software.

TNFα = TNFα Synthesis Inhibition (LPS-induced, human monocytes, ELISA); type: cell-based; details: Monocyte, LPS 1 ng/ml, 16 hours at 37° C.
Procedure: TNFα Inhibition Test a) Human Monocytes Isolation The monocytes were isolated from peripheral blood of healthy volunteers according the procedure of […]. Natl. Cancer Inst., 1964, 32, 507. The monocytes and lymphocytes population was isolated by Ficoll gradient centrifugation, and the cells diluted at a density of 2.5×10^6 cells/ml in RPMI1640 incubation containing 1% inactivated bovine fetal serum, penicillin (100 U/ml) and streptomycin (100 U/ml) were placed in 24-wells plates (1 ml/well) and left to adhere for 1 hour at 37° C. with 5% CO2. At the end of the incubation the lymphocytes not adhering were removed by aspiration and the monocytes adhered to the plate were used in the next step. b) TNFα Synthesis Inhibition The TNFα synthesis from human monocytes was measured according to the method of Barnette M. et al., Biochemical Pharmacology, 1996, 51, 949. The monocytes were incubated for 1 hour with 1 ml of RPMI1640 incubation medium (1% inactivated bovine serum, 100 U/ml penicillin and streptomycin) containing different concentrations of the products according to the present invention or the carrier only for the controls. The TNFα synthesis from monocytes was induced by adding 1 ng/ml of LPS (lipopolysaccharide of E. Coli) and after 16 hours of incubation at 37° C., 5% CO2, the incubation medium was removed, and the surnatant stored at -80° C. until the measurement. The TNFα levels were determined by ELISA test with an Amersham kit. The results are set forth in Table 2 as IC50 measured with the same calculation of example 53.

PDE 3 = molecular target: T1, PDE 3 (Homo sapiens, UniProt Q14432); test: PDE 3 Enzyme Inhibition Test (SPA); type: biochemical; details: enzyme from human platelets; cAMP 1 μM; head prints (μM), no concentration figure
T1 construct: the supernatant was applied to a UNO Q12 column (Bio-Rad); from tissue; host or cells: human platelets from platelet rich plasma
Procedure: (§1) PDE 3 and 5 Enzymes Inhibition Test a) Human Platelet Preparation
(§2) Human platelets were prepared from platelet rich plasma (PRP) obtained from the Hematological Dept. of the "L. Sacco" Hospital of Milan. […]
(§3) b) Purification of PDE 3 and PDE 5 with Fast Protein Liquid Chromatography (FPLC) Before the chromatographic step, platelets were thawed and 50 ml of 20 mM TRIS (pH=6.5) containing 5 mM β-mercapto-ethanol, 2 mM EDTA, 50 mM sodium acetate and 50 μM PMSF (homogenization buffer) were added. The platelet suspension was then homogenized by a Polytron homogenizer (Polytron PT 1200) for 20 seconds. The homogenate was centrifuged at 14,500 rpm for 20 minutes at 4° C., and the supernatant was applied to a UNO Q12 column (Bio-Rad) pre-equilibrated with the PMSF. A flow rate of 4.5 ml/min was used throughout the ion exchange chromatography procedure. The column was washed with PMSF (180 ml) and PDE 3 and PDE 5 were eluted by sodium acetate linear gradient from 0.05M to 1M. The fractions containing enzymatic activity were joined, dialyzed against water and concentrated 10 times by ultrafiltration. The resulting solution was stored at -20° C. in the presence of ethylenglycole (30%) v/v) until use. […]
(§4) c) Assay of Phoshodiesterase Activity
(§5) The enzyme activity was assessed with an Amersham kit based on the SPA technique (Scintillation Proximity Assay). The enzymatic reaction was effected in a total volume of 100 μl of TRIS/HCl buffer (50 mM, pH7.5), MgCl2 (8.3 mM), EGTA (1.7 mM), cAMP (for PDE 3 assay) or cGMP (for PDE 5 assay) (1 μM), [^3 H]cAMP or [^3 H]cGMP (10 μl), and 10 μl of the compounds of the invention. The reaction was started by adding the enzyme (10 μl) incubated for 40 minutes at 30° C. and stopped by adding 50 μl of SPA beads. The radioactivity due to the particles was measured in β-emitting counter. The results are expressed as percent activity versus the control present in each test.

PDE 5 = molecular target: T2, PDE 5 (Homo sapiens, UniProt O76074); test: PDE 5 Enzyme Inhibition Test (SPA); type: biochemical; details: enzyme from human platelets; cGMP 1 μM; head prints (μM), no concentration figure
T2 construct: from tissue; host or cells: human platelets from platelet rich plasma
Procedure: as §1, §2, §3, §4, §5

T1 sequence (Q14432 whole entry): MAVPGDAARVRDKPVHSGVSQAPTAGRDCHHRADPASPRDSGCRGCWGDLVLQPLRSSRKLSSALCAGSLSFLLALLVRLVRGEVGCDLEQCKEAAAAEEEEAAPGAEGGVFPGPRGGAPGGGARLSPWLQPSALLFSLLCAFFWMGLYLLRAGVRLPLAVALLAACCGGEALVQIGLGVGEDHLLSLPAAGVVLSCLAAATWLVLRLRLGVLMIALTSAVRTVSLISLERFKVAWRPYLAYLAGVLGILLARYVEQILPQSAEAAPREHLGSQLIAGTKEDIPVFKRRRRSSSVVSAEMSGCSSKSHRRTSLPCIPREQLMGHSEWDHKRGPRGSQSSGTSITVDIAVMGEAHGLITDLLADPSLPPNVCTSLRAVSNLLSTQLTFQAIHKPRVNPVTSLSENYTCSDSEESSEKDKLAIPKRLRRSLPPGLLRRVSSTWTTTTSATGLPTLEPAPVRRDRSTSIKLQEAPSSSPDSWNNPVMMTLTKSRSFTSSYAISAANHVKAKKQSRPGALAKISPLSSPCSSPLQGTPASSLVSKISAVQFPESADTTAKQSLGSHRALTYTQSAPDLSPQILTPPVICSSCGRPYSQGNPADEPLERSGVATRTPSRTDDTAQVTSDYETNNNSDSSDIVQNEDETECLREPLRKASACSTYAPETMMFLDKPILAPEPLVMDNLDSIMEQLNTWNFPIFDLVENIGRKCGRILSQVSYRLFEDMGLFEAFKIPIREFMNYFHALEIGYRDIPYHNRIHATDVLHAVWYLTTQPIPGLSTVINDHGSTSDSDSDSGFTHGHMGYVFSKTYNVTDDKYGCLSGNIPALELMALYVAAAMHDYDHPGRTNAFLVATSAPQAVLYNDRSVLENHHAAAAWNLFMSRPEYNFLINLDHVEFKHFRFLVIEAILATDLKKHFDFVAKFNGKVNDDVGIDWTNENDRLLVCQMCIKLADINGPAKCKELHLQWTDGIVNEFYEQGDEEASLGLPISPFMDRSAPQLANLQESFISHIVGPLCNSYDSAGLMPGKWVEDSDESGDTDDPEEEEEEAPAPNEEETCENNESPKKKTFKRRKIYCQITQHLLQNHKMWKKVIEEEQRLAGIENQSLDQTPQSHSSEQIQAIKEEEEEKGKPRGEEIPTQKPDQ

SMILES | PDE 4 % inhibition (PDE 4; 10^-5 M) | PDE 4 % inhibition (PDE 4; 10^-6 M) | IC50 (PDE 4) | IC50 (TNFα) | PDE 3 % inhibition (μM) (PDE 3) | PDE 5 % inhibition (μM) (PDE 5)
COc1ccc2c(c1OC1CCCC1)CCN=C2Cc1c(Cl)cncc1Cl [Compound 1, 5-Cyclopentyloxy-1-(3,5-dichloro-2-pridin-4-yl-methyl)-6-methoxy-3,4-dihydro-isoquinoline Hydrochloride] | 96% | 79% | 148 ± 18 nM | 252 ± 67 nM | 0% | 10%
COc1cc2c(cc1OC1CCCC1)C(Cc1c(Cl)cncc1Cl)=NCC2.Cl [Compound 2, 7-Cyclopentyloxy-1-(3,5-dichloro-pyridin-4-yl-methyl)-6-methoxy-3,4-dihydro-isoquinoline Hydrochloride] | 88% | 54% | 1050 ± 191 nM | – | – | –
COc1ccc2c(c1OCCCCCc1ccccc1)CCN=C2Cc1c(Cl)cncc1Cl.Cl [Compound 3, 1-(3,5-Dichloro-pyridin-4-yl-methyl)-5-(5-phenylpentyloxy)-6-methoxy-3,4-dihydro-isoquinoline Hydrochloride] | – | 93% | 87.5 ± 17 nM | 83 ± 16 nM | 24% | 12%
COc1ccc2c(c1OCCCCCc1ccccc1)CCNC2Cc1c(Cl)cncc1Cl.Cl.Cl (centres unmarked) [Compound 4, 1-(3,5-dichloro-pyridin-4-yl-methyl)-5-(5-phenylpentyloxy)-6-methoxy-1,2,3,4-tetrahydro-isoquinoline Dihydrochloride] | – | 54% | – | – | – | –
COC(=O)c1c(Cc2c(Cl)cncc2Cl)c2ccc(OC)c(OC3CCCC3)c2[nH]c1=O [Compound 8, 8-Cyclopentyloxy-4-(3,5-dichloro-pyridin-4-yl-methyl)-7-methoxy-2-oxo-1,2-dihydro-quinolin-carboxylic Acid Methyl Ester] | – | 60% | – | – | – | –

The next lines start with the values.

PDE 4 % inhibition (PDE 4; 10^-5 M) | PDE 4 % inhibition (PDE 4; 10^-6 M) | IC50 (PDE 4) | IC50 (TNFα) | PDE 3 % inhibition (μM) (PDE 3) | PDE 5 % inhibition (μM) (PDE 5) | SMILES
– | 73% | – | – | – | – | COc1cc2[nH]cc(-c3c(Cl)cncc3Cl)c(=O)c2cc1OC1CCCC1 [Compound 10, 6-Cyclopentyloxy-3-(3,5-dichloro-pyridin-4-yl)-7-methoxy-1H-quinolin-4-one]
100% | 94% | 101 ± 21 nM | 78.7 ± 16 nM | 12% | 10% | COc1cc2c(cc1OC1CCCC1)C(=O)C(c1c(Cl)cncc1Cl)CN2 (centres unmarked) [Compound 12, 6-Cyclopentyloxy-3-(3,5-dichloro-pyridin-4-yl)-7-methoxy-2,3-dihydro-1H-quinolin-4-one]
